Activity calls are given as the source filed them. No cut-off for these calls is given here.

The record followed here is ChEMBL document CHEMBL1151329, “New cyclic peroxides from the Philippine sponge Plakinastrella sp” (J Nat Prod, 1998).

For this assay, the system named is Candida albicans. Kind of assay: Antifungal activity against Candida albicans. Type of assay: functional, organism-based.
Regarding `CC/C=C\C/C=C/C=C/CCCCCC[C@@]1(C)C[C@](C)(CC(=O)OC)OO1` (relative stereo), the outcome was inactive. As for `CC/C=C\C/C=C/C=C/CCCCCC[C@@]1(C)C[C@](C)(CC(=O)O)OO1` (relative stereo), the entry is “inactive”; as for `CCC(C)CCCCCC/C=C\CC/C=C\CCCC(=O)OC` (centres undefined), “inactive”. As for `C[C@@]1(CCCCCCCCCCc2ccccc2)C[C@]2(C)OC(=O)C[C@@H]2OO1`, the entry is “inactive”.
